Measurements: ChEMBL document CHEMBL5260810, “Inhibition of bromodomain-containing protein 9 for the prevention of epigenetically-defined drug resistance” (Bioorg Med Chem Lett, 2017)

Columns and labels:
[1] = target: T1, Bromodomain-containing protein 4 (Homo sapiens, UniProt O60885); assay: Displacement of biotinylated small-molecule ligand from recombinant His-tagged BRD4 bromodomain 2 (unknown origin) measured after 10 mins by TR-FRET assay
NCI-H520 = assay: Cytotoxicity against human NCI-H520 cells measured after 8 days; assay type: functional, cell-based; conditions: NCI-H520, 192 h
Homo sapiens = organism: Homo sapiens; assay: Binding affinity to GABA-gated chloride channel (unknown origin) at 10 uM by antagonist radioligand-based assay relative to control; set-up: scale not given: the % may be the effect or the level left; conditions: time 60.0 min
SUD4 = assay: Cytotoxicity against human SU-DHL-4 cells measured after 8 days; assay type: functional, cell-based; conditions: SU-DHL-4, 192 h
NCI-H1299 = assay: Cytotoxicity against human NCI-H1299 cells measured after 8 days; assay type: functional, cell-based; conditions: NCI-H1299, 192 h
[2] = target: Transcription initiation factor TFIID subunit 1 (Homo sapiens, UniProt P21675); assay: Binding affinity to human partial length TAF1 bromodomain 2 (D1521 to D1656 residues) expressed in bacterial expression system by BROMOscan assay
Chain of Transcription initiation factor TFIID subunit 1 (P21675 whole entry, the tested form may be a part): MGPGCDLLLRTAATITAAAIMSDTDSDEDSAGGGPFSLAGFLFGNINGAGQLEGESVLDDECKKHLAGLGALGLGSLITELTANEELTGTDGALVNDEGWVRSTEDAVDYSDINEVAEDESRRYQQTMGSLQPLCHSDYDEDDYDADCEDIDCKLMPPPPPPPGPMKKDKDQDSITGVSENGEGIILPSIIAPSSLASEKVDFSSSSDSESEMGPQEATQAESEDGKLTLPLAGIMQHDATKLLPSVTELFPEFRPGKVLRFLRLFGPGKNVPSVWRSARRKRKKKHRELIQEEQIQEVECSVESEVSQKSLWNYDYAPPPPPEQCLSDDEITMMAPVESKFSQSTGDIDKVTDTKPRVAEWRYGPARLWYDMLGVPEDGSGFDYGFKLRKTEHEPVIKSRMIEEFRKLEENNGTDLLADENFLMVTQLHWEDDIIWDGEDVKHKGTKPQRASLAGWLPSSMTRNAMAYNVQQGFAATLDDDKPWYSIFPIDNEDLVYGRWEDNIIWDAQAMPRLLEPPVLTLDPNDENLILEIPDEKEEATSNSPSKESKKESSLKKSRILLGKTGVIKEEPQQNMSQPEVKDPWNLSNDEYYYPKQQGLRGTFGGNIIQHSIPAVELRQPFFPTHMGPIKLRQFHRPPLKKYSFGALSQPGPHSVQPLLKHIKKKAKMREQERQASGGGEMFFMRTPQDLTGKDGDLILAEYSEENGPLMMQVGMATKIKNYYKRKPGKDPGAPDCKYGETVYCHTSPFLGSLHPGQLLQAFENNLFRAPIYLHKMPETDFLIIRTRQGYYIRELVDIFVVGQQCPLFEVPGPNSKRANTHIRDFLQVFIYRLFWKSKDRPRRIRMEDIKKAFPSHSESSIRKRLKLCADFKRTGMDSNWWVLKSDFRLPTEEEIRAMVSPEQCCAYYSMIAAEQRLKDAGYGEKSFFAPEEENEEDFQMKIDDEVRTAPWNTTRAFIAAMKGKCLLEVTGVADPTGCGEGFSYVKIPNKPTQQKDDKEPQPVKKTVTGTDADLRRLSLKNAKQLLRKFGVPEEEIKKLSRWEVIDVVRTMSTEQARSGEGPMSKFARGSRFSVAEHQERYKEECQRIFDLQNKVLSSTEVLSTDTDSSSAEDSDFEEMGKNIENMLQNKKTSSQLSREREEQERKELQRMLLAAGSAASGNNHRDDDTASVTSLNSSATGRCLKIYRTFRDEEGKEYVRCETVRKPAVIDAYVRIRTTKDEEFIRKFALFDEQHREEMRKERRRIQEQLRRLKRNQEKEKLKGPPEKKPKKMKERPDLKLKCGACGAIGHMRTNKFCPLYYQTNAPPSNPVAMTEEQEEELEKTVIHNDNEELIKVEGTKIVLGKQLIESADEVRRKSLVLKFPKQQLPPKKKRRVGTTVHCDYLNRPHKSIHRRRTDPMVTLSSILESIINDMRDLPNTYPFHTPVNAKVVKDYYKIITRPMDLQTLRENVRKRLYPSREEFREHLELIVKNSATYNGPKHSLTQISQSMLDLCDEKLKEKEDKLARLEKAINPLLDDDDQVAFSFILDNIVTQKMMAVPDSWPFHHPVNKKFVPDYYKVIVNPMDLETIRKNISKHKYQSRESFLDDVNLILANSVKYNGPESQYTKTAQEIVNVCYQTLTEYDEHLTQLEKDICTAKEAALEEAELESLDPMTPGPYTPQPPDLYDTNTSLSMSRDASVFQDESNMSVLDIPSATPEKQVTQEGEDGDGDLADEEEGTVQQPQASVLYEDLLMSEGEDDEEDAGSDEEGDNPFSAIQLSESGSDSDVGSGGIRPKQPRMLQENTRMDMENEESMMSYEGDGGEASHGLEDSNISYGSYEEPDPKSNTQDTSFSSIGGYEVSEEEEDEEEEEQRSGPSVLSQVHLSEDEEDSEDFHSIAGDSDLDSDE

[3] = target: Sodium-dependent noradrenaline transporter (Homo sapiens) (UniProt P23975); assay: Displacement of [3H]nisoxetine from recombinant human norepinephrine transporter at 10 uM after 120 mins by scintillation counting analysis relative to control
Chain of Sodium-dependent noradrenaline transporter (Homo sapiens) (P23975 whole entry): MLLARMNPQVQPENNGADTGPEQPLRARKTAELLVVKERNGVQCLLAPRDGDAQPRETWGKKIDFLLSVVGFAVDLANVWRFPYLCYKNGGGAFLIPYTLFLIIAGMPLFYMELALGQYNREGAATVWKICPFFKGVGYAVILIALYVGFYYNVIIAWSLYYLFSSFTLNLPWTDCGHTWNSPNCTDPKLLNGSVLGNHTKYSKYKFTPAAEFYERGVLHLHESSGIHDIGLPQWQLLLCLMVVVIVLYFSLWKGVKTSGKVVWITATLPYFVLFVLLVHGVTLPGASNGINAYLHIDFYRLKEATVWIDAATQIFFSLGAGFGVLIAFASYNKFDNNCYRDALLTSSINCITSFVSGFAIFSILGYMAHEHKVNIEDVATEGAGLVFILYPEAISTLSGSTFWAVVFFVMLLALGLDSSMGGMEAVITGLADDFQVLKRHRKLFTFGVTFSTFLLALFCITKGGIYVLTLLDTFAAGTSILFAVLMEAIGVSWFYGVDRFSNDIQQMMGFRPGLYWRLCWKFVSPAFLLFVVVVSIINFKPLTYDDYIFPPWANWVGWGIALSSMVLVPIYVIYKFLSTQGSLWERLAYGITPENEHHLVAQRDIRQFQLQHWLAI

MFM-223 = assay: Cytotoxicity against human MFM-223 cells measured after 8 days; assay type: functional, cell-based; conditions: MFM-223, 192 h
NCI-H1437 = assay: Cytotoxicity against human NCI-H1437 cells measured after 8 days; assay type: functional, cell-based; conditions: NCI-H1437, 192 h
HEL = assay: Cytotoxicity against human HEL cells measured after 8 days; assay type: functional, cell-based; conditions: 192 h
EOL1 = assay: Cytotoxicity against human EOL1 cells measured after 8 days; assay type: functional, cell-based; conditions: EOL1, 192 h
NCI-H226 = assay: Cytotoxicity against human NCI-H226 cells measured after 8 days; assay type: functional, cell-based; conditions: NCI-H226, 192 h
[4] = Cytotoxicity against human NCI-H2722 cells measured after 8 days; assay type: functional, cell-based; conditions: NCI-H2722, 192 h
SU-DHL-16 = assay: Cytotoxicity against human SU-DHL-16 cells measured after 8 days; assay type: functional, cell-based; conditions: SU-DHL-16, 192 h
[5] = target: T2, E3 ubiquitin-protein ligase TRIM33 (Homo sapiens, UniProt Q9UPN9); assay: Binding affinity to human partial length TRIM33 (D882 to A1087 residues) expressed in bacterial expression system by BROMOscan assay
T2 sequence (Q9UPN9 whole entry): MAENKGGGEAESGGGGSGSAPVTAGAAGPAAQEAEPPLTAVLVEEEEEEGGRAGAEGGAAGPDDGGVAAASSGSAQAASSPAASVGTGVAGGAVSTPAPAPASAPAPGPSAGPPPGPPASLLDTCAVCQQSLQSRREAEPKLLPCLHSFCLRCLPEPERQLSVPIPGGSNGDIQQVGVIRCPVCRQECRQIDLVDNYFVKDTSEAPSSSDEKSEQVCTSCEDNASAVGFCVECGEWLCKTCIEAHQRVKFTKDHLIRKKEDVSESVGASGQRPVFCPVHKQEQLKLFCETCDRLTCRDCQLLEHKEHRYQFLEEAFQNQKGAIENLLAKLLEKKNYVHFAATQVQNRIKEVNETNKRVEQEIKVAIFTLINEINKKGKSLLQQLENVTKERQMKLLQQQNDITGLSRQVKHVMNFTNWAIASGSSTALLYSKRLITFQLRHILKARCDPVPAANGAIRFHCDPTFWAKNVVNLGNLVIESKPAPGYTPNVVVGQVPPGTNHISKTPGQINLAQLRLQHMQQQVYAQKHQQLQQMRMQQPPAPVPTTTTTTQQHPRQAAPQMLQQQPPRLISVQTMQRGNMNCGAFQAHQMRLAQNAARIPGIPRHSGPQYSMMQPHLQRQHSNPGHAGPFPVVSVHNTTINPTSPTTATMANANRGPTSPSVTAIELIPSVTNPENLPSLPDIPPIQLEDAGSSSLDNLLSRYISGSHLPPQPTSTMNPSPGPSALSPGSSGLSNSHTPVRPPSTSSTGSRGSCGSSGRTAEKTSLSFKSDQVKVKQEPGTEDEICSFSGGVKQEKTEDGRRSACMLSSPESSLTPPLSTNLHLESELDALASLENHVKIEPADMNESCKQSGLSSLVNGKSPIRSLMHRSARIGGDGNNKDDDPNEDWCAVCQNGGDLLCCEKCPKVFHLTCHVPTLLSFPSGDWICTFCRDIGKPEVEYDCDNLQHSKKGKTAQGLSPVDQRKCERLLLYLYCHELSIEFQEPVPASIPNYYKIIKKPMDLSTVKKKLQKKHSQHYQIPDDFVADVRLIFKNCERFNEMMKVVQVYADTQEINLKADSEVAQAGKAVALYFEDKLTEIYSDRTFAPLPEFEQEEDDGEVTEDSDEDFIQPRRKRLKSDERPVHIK

DB = assay: Cytotoxicity against human DB cells measured after 8 days; assay type: functional, cell-based; conditions: 192 h
MV4-11 = assay: Cytotoxicity against human MV4-11 cells measured after 8 days; assay type: functional, cell-based; conditions: MV4-11, 192 h
HCC95 = assay: Cytotoxicity against human HCC95 cells measured after 8 days; assay type: functional, cell-based; conditions: HCC95, 192 h
NCI-H661 = assay: Cytotoxicity against human NCI-H661 cells measured after 8 days; assay type: functional, cell-based; conditions: NCI-H661, 192 h
KARPAS-422 = assay: Cytotoxicity against human KARPAS-422 cells measured after 8 days; assay type: functional, cell-based; conditions: KARPAS-422, 192 h
COLO 320DM = assay: Cytotoxicity against human COLO 320DM cells measured after 8 days; assay type: functional, cell-based; conditions: 192 h
[6] = target: Histone acetyltransferase p300 (Homo sapiens, UniProt Q09472); assay: Binding affinity to human partial length EP300 (A1040 to G1161 residues) expressed in bacterial expression system by BROMOscan assay
Chain of Histone acetyltransferase p300 (Q09472 whole entry, the tested form may be a part): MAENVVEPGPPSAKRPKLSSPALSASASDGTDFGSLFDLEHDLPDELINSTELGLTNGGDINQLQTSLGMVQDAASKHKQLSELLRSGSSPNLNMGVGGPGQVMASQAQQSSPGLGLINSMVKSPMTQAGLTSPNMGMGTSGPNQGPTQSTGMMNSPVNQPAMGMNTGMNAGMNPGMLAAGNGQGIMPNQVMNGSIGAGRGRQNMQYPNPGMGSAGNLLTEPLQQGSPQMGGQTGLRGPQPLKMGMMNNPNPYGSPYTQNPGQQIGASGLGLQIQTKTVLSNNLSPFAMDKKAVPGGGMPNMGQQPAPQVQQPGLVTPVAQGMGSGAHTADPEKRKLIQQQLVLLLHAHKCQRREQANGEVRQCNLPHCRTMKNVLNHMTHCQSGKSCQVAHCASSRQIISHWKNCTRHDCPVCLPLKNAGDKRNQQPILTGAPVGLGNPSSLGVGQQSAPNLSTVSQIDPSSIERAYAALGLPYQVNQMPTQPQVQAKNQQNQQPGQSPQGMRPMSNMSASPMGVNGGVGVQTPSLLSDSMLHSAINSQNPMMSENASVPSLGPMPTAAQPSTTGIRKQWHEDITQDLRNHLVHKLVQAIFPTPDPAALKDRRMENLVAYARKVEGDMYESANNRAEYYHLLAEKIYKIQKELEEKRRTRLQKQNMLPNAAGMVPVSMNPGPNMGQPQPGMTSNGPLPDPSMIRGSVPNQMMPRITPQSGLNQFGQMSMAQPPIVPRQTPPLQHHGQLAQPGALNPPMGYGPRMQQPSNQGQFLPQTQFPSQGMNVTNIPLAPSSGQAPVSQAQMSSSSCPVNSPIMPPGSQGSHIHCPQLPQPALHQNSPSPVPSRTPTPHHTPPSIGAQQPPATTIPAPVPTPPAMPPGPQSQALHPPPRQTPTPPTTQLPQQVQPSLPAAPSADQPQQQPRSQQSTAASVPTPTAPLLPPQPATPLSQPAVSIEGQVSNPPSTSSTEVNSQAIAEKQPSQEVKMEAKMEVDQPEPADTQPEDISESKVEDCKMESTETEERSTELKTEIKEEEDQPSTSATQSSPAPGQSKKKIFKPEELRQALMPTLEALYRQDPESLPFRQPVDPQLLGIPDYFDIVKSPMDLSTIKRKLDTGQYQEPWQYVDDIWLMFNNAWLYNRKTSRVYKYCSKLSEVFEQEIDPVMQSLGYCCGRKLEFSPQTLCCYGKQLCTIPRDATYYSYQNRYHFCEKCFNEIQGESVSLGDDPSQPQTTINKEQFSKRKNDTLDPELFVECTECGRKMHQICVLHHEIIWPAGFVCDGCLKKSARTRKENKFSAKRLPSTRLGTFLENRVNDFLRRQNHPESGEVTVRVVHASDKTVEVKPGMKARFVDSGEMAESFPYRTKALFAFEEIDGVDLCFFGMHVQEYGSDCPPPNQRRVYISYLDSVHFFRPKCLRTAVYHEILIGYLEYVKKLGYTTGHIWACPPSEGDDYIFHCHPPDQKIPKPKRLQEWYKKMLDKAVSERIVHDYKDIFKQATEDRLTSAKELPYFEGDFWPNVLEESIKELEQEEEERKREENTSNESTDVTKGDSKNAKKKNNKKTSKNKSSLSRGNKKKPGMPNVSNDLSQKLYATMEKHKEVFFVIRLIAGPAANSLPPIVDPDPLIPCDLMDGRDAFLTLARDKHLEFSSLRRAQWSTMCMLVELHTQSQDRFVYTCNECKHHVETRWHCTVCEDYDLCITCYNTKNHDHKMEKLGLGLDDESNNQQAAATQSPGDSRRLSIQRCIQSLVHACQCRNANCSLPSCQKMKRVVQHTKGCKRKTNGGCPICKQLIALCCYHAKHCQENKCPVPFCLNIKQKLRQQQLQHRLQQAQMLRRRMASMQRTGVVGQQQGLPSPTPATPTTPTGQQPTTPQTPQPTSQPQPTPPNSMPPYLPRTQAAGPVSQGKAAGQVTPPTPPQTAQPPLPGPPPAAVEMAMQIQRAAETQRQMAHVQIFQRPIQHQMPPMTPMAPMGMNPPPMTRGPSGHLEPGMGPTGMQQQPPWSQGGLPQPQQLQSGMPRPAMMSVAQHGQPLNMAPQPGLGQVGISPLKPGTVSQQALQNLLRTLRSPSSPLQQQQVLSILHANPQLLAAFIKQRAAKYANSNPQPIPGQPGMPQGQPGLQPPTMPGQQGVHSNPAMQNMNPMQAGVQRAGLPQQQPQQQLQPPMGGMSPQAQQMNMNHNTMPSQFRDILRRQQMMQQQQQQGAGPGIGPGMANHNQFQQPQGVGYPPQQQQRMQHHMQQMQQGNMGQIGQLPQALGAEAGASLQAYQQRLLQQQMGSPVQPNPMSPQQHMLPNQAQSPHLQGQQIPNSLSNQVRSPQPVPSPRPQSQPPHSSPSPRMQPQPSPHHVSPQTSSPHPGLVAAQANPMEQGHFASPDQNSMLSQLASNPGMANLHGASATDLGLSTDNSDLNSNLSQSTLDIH

HCC70 = assay: Cytotoxicity against human HCC70 cells measured after 8 days; assay type: functional, cell-based; conditions: HCC70, 192 h
HCC827 = assay: Cytotoxicity against human HCC827 cells measured after 8 days; assay type: functional, cell-based; conditions: HCC827, 192 h
[7] = target: SWI/SNF-related matrix-associated actin-dependent regulator of chromatin subfamily A member 4 (Homo sapiens, UniProt P51532); assay: Binding affinity to human partial length SMARCA4 (A1448 to S1575 residues) expressed in bacterial expression system by BROMOscan assay
NCI-H358 = assay: Cytotoxicity against human NCI-H358 cells measured after 8 days; assay type: functional, cell-based; conditions: NCI-H358, 192 h
LCLC-97TM1 = assay: Cytotoxicity against human LCLC-97TM1 cells measured after 8 days; assay type: functional, cell-based; conditions: LCLC-97TM1, 192 h
HOP-62 = assay: Cytotoxicity against human HOP-62 cells measured after 8 days; assay type: functional, cell-based; conditions: HOP-62, 192 h
SR = assay: Cytotoxicity against human SR cells measured after 8 days; assay type: functional, cell-based; conditions: 192 h
[8] = target: T1, Bromodomain-containing protein 4; assay: Binding affinity to BRD4 bromodomain 1/2 long isoform (unknown origin) by BROMOscan assay

Row | Structure (SMILES) | IC50 [1] | IC50 (NCI-H520) | Activity (Homo sapiens) | IC50 (SUD4) | IC50 (NCI-H1299) | Kd [2] | Activity [3] | IC50 (MFM-223) | IC50 (NCI-H1437) | IC50 (HEL) | IC50 (EOL1) | IC50 (NCI-H226) | IC50 [4] | IC50 (SU-DHL-16) | Kd [5] | IC50 (DB) | IC50 (MV4-11) | Kd [6] | Kd [7] | Kd [8] | also measured
1 | C/C=C/Cn1cc(-c2cc(OC)c(C(=O)N3CCOCC3)cc2OC)c2cc(C)[nH]c2c1=O | > 20 µM | 2 µM | 14% | 2 µM | 2 µM | > 10 µM | 0% | 1.46 µM | 2 µM | 2 µM | 1.34 µM | 2 µM | 2 µM | 2 µM | > 5 µM | 2 µM | 2 µM | > 10 µM | > 10 µM | > 10 µM | IC50 (HCC95): 2 µM; IC50 (NCI-H661): 2 µM; IC50 (KARPAS-422): 2 µM; IC50 (COLO 320DM): 2 µM; IC50 (HCC70): 2 µM; IC50 (HCC827): 2 µM; IC50 (NCI-H358): 2 µM; IC50 (LCLC-97TM1): 2 µM; IC50 (HOP-62): 2 µM; IC50 (SR): 2 µM
2 | C/C=C/Cn1cc(-c2ccc(C(C)(C)O)cc2OC)c2cc[nH]c2c1=O | > 20 µM | 20 µM | 15% | 8.59 µM | 20 µM | > 10 µM | -6% | 11.6 µM | 20 µM | 14.8 µM | 3.3 µM | 20 µM | 20 µM | 13.9 µM | > 10 µM | 16.9 µM | 8.02 µM | 4.5 µM | > 10 µM | 1.7 µM | IC50 (HCC95): 20 µM; IC50 (NCI-H661): 20 µM; IC50 (KARPAS-422): 20 µM; IC50 (COLO 320DM): 20 µM; IC50 (HCC70): 20 µM; IC50 (HCC827): 20 µM; IC50 (NCI-H358): 20 µM; IC50 (LCLC-97TM1): 20 µM; IC50 (HOP-62): 20 µM; IC50 (SR): 20 µM
3 | C/C=C/Cn1cc(-c2ccc(C(=O)N3CCOCC3)cc2)c2cc[nH]c2c1=O | 8.3 µM | 20 µM | 4% | 20 µM | 20 µM | 0.31 µM | -3% | 20 µM | 20 µM | 18 µM | 0.95 µM | 20 µM | 20 µM | 10.3 µM | > 10 µM | 20 µM | 6.86 µM | > 10 µM | 28 µM | 8.8 µM | IC50 (HCC95): 20 µM; IC50 (NCI-H661): 20 µM; IC50 (KARPAS-422): 14.4 µM; IC50 (COLO 320DM): 20 µM; IC50 (HCC70): 20 µM; IC50 (HCC827): 20 µM; IC50 (NCI-H358): 20 µM; IC50 (LCLC-97TM1): 20 µM; IC50 (HOP-62): 20 µM; IC50 (SR): 20 µM
4 | C/C=C/Cn1cc(-c2cc(OC)c(C(C)(C)O)cc2OC)c2cc(C)[nH]c2c1=O | > 20 µM | – | – | – | – | > 10 µM | – | – | – | – | – | – | – | – | > 10 µM | – | – | > 10 µM | > 10 µM | > 10 µM | –
